The values below come from patent publication US6787541B1, “Thieno-and furopyrimidine derivatives as A2A-receptor antagonists” (Vernalis Research Limited, priority 1999, dated 2004).

Where a name gives a salt, the structure may show the parent alone.

The target of series [1] is T1, human adenosine A2A receptors expressed in HEK-293 cells (Homo sapiens, UniProt P29274).
T1 construct: expressed in transfected cells; host or cells: HEK-293 cells
Put plainly: Binding affinities at hA2A receptors, displacement of [3H]-CGS 21680.

T1 sequence (P29274 whole entry): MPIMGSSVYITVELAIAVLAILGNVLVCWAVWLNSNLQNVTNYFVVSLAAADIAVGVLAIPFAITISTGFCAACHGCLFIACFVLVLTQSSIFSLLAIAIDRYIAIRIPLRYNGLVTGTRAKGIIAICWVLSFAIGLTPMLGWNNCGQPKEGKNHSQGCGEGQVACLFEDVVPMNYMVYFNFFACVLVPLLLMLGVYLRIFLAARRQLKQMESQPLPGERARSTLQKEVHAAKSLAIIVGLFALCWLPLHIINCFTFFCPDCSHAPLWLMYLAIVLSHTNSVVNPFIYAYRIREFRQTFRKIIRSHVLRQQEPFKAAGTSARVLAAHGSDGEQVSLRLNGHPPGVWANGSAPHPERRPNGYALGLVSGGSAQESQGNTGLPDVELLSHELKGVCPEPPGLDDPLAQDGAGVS

`CC(CO)Nc1nc(C(=O)c2cccs2)c2sccc2n1` (racemic) [Example 89, (2RS)-2-(1-Hydroxy-2-propylamino)thieno[3,2-d]pyrimidin-4-yl 2-thienylmethanone] displayed a Ki in series [1] of 3 nM. This lies in the single-digit nanomolar range. In series [1], `O=C(c1cccs1)c1nc(NCC(O)CO)nc2ccsc12` (racemic) [Example 93, (2RS)-2-(2,3-Dihydroxypropylamino)thieno[3,2-d]pyrimidin-4-yl 2-thienylmethanone] displayed a Ki of 7 nM. Compound `O=C(c1ccccc1Cl)c1nc(C(F)(F)F)nc2ccsc12` [Example 8, 2-Chlorophenyl 2-trifluoromethylthieno[3,2-d]pyrimidin-4-ylmethanone] registered a melting point of 122 to 123 °C. Also, in series [1], the affinity corresponds to a Ki of 586 nM.

The compound `Cc1ccccc1C(=O)c1nc(C(F)(F)F)nc2ccsc12` [Example 11, 2-Methylphenyl 2-trifluoromethylthieno[3,2-d]pyrimidin-4-ylmethanone] returned a melting point of 116 to 118 °C. Moreover, in series [1], the Ki worked out at 330 nM. The corresponding values for `O=C(c1ccc(Cl)s1)c1nc(C(F)(F)F)nc2ccsc12` [Example 12, 5-Chloro-2-thienyl 2-trifluoromethylthieno[3,2-d]pyrimidin-4-ylmethanone] are 165 to 167 °C and 31 nM. Consider `O=C(c1ccccc1)c1nc(Cl)nc2ccsc12` [Example 28, 2-Chlorothieno[3,2-d]pyrimidin-4-yl phenylmethanone], for which the melting point is 162.2 to 163.1 °C. The same compound displayed a Ki in series [1] of 865 nM. The matching figures for `Cc1ccc(C(=O)c2nc(C(F)(F)F)nc3ccsc23)cc1` [Example 29, 4-Methylphenyl 2-trifluoromethylthieno[3,2-d]pyrimidin-4-ylmethanone]: 127 to 129 °C and 539 nM. The compound `CCc1nc(C(C#N)c2ccccn2)c2sccc2n1` (stereo not drawn) [Example 34, 2-Ethyl-α-(2-pyridyl)thieno[3,2-d]pyrimidine-4-acetonitrile] came in with a melting point of 240 to 242 °C. In addition, in series [1], the Ki was 245 nM. The matching figures for `COc1nc(C(=O)c2cccs2)c2scc(C)c2n1` [Example 37, 2-Methoxy-7-methylthieno[3,2-d]pyrimidin-4-yl 2-thienylmethanone]: 144 to 146 °C and 361 nM. `CSc1nc(C(=O)c2cccs2)c2scc(C)c2n1` [Example 39, 7-Methyl-2-methylthiothieno[3,2-d]pyrimidin-4-yl 2-thienylmethanone]: the melting point fell in the range of 144 to 166 °C. In series [1], this compound yielded a Ki of 575 nM.

Turning to `CN(C)c1nc(C(=O)c2ccccc2)c2sccc2n1` [Example 40, 2-Dimethylaminothieno[3,2-d]pyrimidin-4-yl phenylmethanone], the melting point was in the range of 116.5 to 117 °C. Moreover, the inhibition constant Ki in series [1] was 295 nM. The corresponding values for `Cc1ccsc1C(=O)c1nc(C(F)(F)F)nc2ccsc12` [Example 42, 3-Methyl-2-thienyl 2-trifluoromethylthieno[3,2-d]pyrimidin-4-ylmethanone] are 201 to 202 °C and 26 nM. The matching figures for `O=C(c1cccs1)c1nc(Cl)nc2ccsc12` [Example 44, 2-Chlorothieno[3,2-d]pyrimidin-4-yl 2-thienylmethanone]: 190.5 to 191 °C and 91 nM. The corresponding values for `O=C(c1ccc(Br)s1)c1nc(C(F)(F)F)nc2ccsc12` [Example 46, 5-Bromo-2-thienyl 2-trifluoromethylthieno[3,2-d]pyrimidin-4-ylmethanone] are 180 to 182 °C and 101 nM. Compound `NCCNc1nc(C(=O)c2cccs2)c2sccc2n1` [Example 55, 2-(2-Aminoethylamino)thieno[3,2-d]pyrimidin-4-yl 2-thienylmethanone dihydrochloride] showed a Ki in series [1] of 78 nM. This counts as double-digit nanomolar. For the compound `CNc1nc(C(=O)c2cccs2)c2sccc2n1` [Example 58, 2-Methylaminothieno[3,2-d]pyrimidin-4-yl thienylmethanone], the Ki in series [1] amounted to 15 nM. The compound `CN(C)CCNc1nc(C(=O)c2cccs2)c2sccc2n1` [Example 66, 2-(2-Dimethylaminoethylamino)thieno[3,2-d]pyrimidin-4-yl 2-thienylmethanone dihydrochloride] yielded a Ki in series [1] of 218 nM. The same measure, in the same setting: for `CCCc1nc(C(O)c2cccs2)c2sccc2n1` (stereo not drawn) [Example 67, 2-n-Propyl-α-(2-thienyl)thieno[3,2-d]pyrimidine-4-methanol] the value was 469 nM; for `CN(C)c1nc(C(=O)c2cccs2)c2scc(-c3ccco3)c2n1` [Example 79, 2-Dimethylamino-7-(2-furyl)thieno[3,2-d]pyrimidin-4-yl 2-thienylmethanone], 858 nM.

`CN(CCO)c1nc(C(=O)c2cccs2)c2sccc2n1` [Example 82, 2-(N-(2-Hydroxyethyl)-N-methylamino)thieno[3,2-d]pyrimidin-4-yl 2-thienylmethanone]: the affinity in series [1], expressed as Ki, was 29 nM. This Ki is about 30-fold lower than that of the compound before.

As for `CN1CCN(c2nc(C(=O)c3cccs3)c3sccc3n2)CC1` [Example 83, 2-(4-Methylpiperazinyl)thieno[3,2-d]pyrimidin-4-yl 2-thienylmethanone], the Ki in series [1] is 863 nM.

`CC(C)(C)OC(=O)N1CCN(c2nc(C(=O)c3cccs3)c3sccc3n2)CC1` [Example 84, Tert-butyl 4-(4-(2-thienylcarbonyl)thieno[3,2-d]pyrimidin-2-yl)piperazinecarboxylate]: affinity in series [1] was put at a Ki of 392 nM. In series [1], `C[C@@H](CO)Nc1nc(C(=O)c2cccs2)c2sccc2n1` [Example 101, (2S)-2-(1-Hydroxy-2-propylamino)thieno[3,2-d]pyrimidin-4-yl 2-thienylmethanone] displayed an inhibition constant (Ki) of 7 nM. Still for that read-out and setting: for `C[C@H](CO)Nc1nc(C(=O)c2cccs2)c2sccc2n1` [Example 102, (2R)-2-(1-Hydroxy-2-propylamino)thieno[3,2-d]pyrimidin-4-yl 2-thienylmethanone] the value was 2 nM; for `C[C@@H](O)CNc1nc(C(=O)c2cccs2)c2sccc2n1` [Example 103, (2R)-2-(2-Hydroxypropylamino)thieno[3,2-d]pyrimidin-4-yl 2-thienylmethanone], 6 nM. Still for that read-out and setting: under `O=C(c1cccs1)c1nc(NCCCn2ccnc2)nc2ccsc12` [Example 104, 2-(3-(1H-Imidazol-1-yl)propylamino)thieno[3,2-d]pyrimidin-4-yl 2-thienylmethanone] stands 2 nM. Consider `CS(=O)(=O)NNc1nc(C(=O)c2cccs2)c2sccc2n1` [Example 128, Methanesulphonic acid 2-(4-(2-thienylcarbonyl)thieno[3,2-d]pyrimidin-2-yl)hydrazide], for which the melting point fell in the range of 242.1 to 242.7 °C.

With `Cc1ccsc1C(=O)c1nc(N2CCC[C@@H]2CO)nc2ccsc12` [Example 129, (2R)-2-(2-Hydroxymethylpyrrolidin-1-yl)thieno[3,2-d]pyrimidin-4-yl 3-methyl-2-thienylmethanone], the melting point lay within 96.2 to 96.9 °C. Still for that read-out and setting: for `CC(=O)NNc1nc(C(=O)c2cccs2)c2sccc2n1` [Example 130, Acetic acid 2-(4-(2-thienylcarbonyl)thieno[3,2-d]pyrimidin-2-yl)hydrazide] the value was 258.3 to 259 °C; for `C=CCNC(=O)NNc1nc(C(=O)c2cccs2)c2sccc2n1` [Example 131, N-Allyl-2-(4-(2-thienylcarbonyl)thieno[3,2-d]pyrimidin-2-yl)hydrazinecarboxamide], 252.8 to 253.3 °C; for `Cc1ccsc1C(=O)c1nc(NCCCn2ccnc2)nc2ccsc12` [Example 132, 2-(3-(1H-imidazol-1-yl)propylamino)thieno[3,2-d]pyrimidin-4-yl 3-methyl-2-thienylmethanone], 138.1 to 138.7 °C. The same measure, in the same setting: for `CN(C)CCNC(=O)c1nc(C(=O)c2cccs2)c2sccc2n1` [Example 134, N-(2-Dimethylaminoethyl)-4-(2-thienylcarbonyl)thieno[3,2-d]pyrimidin-2-carboxamide] the value was 143.6 to 144.7 °C. On the same count and under the same terms, under `CN(C)C(=O)c1nc(C(=O)c2cccs2)c2sccc2n1` [Example 136, N,N-Dimethyl-4-(2-thienylcarbonyl)thieno[3,2-d]pyrimidin-2-carboxamide] stands 173.1 to 174 °C. Turning to `O=C(c1cccs1)c1nc(NCCc2cnc[nH]2)nc2ccsc12` [Example 144, 2-(2-(1H-Imidazol-4-yl)ethylamino)thieno[3,2-d]pyrimdin-4-yl 2-thienylmethanone], the Ki in series [1] was found to be 5 nM. The same measure, in the same setting: for `CC(C)CC(=O)NCCNc1nc(C(=O)c2cccs2)c2sccc2n1` [Example 150, 3-Methyl-N-(2-(4-(2-thienylcarbonyl)thieno[3,2-d]pyrimidin-2-yl)aminoethyl)butanamide] the value was 4 nM; for `O=C(c1cccs1)c1nc(NCCNC(=O)C2CCCCC2)nc2ccsc12` [Example 151, N-(2-(4-(2-Thienylcarbonyl)thieno[3,2-d]pyrimidin-2-yl)aminoethyl)cyclohexylcarboxamide], 7 nM; for `COC(=O)NCCNc1nc(C(=O)c2cccs2)c2sccc2n1` [Example 155, Methyl (2-(4-(2-thienylcarbonyl)thieno[3,2-d]pyrimidin-2-yl)aminoethyl)carbamate], 4 nM. On the same count and under the same terms, under `O=C(NCCNc1nc(C(=O)c2cccs2)c2sccc2n1)OCCCl` [Example 158, 2-Chloroethyl (2-(4-(2-thienylcarbonyl)thieno[3,2-d]pyrimidin-2-yl)aminoethyl)carbamate] stands 6 nM; under `C=CCNC(=O)NCCNc1nc(C(=O)c2cccs2)c2sccc2n1` [Example 159, N-Allyl-N′-(2-(4-(2-thienylcarbonyl)thieno[3,2-d]pyrimidin-2-yl)aminoethyl)urea], 8 nM; under “α-(2-Pyridyl-2-trifluoromethylthieno[3,2- d]pyrimidine-4-acetonitrile [Example 18]”, 346 nM. Same read-out and setting: under “α-(3-Thienyl-2-trifluoromethylthieno[3,2- d]pyrimidine-4-acetonitrile [Example 17]” stands 895 nM.

What is called Ki is a measure of affinity in units of concentration, obtained from inhibition or displacement. The low end stands for tighter binding, the high end for weaker binding. One may read the melting point as the temperature of the solid-liquid transition.
